What all share (format): in vivo, albino Wistar rats
Assay [1] deals with protein carbonyl (P. carbonyl). As to the kind of experiment: Protein carbonyl content in liver homogenate, DEN/2-AAF hepatocarcinogenesis model. The note with it: mean±SEM, 8 rats. On the procedure: The experimental hepatocarcinogenesis model was developed according to a protocol by […] et al. that was adapted for our purposes. To initiate and promote hepatocarcinogenesis, diethylnitrosamine (DEN) and 2-acetylaminofluorene (2-AAF) were used, respectively. For hepatocarcinogenesis initiation in this model, a single DEN dose (200 mg/kg b.wt.) dissolved in saline was injected intraperitoneally. After initiation, all rats underwent one period of 5-days fasting, as mitotic proliferative stimuli. To promote hepatocarcinogenesis, 2-acetylaminofluorene (2-AAF) was introduced in the form of six daily intragastric doses (30 mg/kg in 1% Tween 80); two weeks after DEN treatment. […] at doses of 25 mg/kg by weight (b.wt.) and 50 mg/kg b.wt, was administrated orally to rats. These doses have been reported to suppress chemically-induced oxidative damage in rats. A total of 40 adult male albino Wistar rats were randomly divided into […] (n=8) and were subjected to different treatments. Group 1 (control) was orally administered distilled water (5 ml/kg b.wt.) throughout the experimental duration and were injected with a single dose of saline. Group 2 ([…] only) was subjected to a safranal dose (50 mg/kg b.wt.) through oral administration for the duration of the experimental period. Hepatocarcinogenesis was induced by DEN and promoted by 2-AAF, as reported previously, in group 3 (HCC). […] Glutathione (GSH) content was determined by analyzing liver homogenates, according to the method of Van Dooran et al. The assay depends on measuring yellow 5-thiol-2-nitrobenzoate absorbance at 412 nm. Glutathione-S-transferase (GST) activity was determined using the method of Habig et al. GST catalyzes the conjugation of GSH thiol group with 1-Chloro-2,4-dinitrobenzene (CDNB), which can be measured by determining the increase in absorbance at 340 nm. […] CAT decomposes hydrogen peroxide (H2O2) to oxygen and water; therefore, the activity of CAT was evaluated according to by the exponential decomposition of H2O2 at 240 nm. […] UV-160-Shimadzu recording spectrophotometer was used to record absorbances. […]

The test system of assay [2] is ED-2 (Kupffer cells). As to the kind of experiment: Immunohistochemical staining of liver sections, ED-2 positive cells (Kupffer cells). As to conditions: mean±SEM, 8 rats. The method, then:
(§1) The experimental hepatocarcinogenesis model was developed according to a protocol by Espandiaria et al. that was adapted for our purposes. To initiate and promote hepatocarcinogenesis, diethylnitrosamine (DEN) and 2-acetylaminofluorene (2-AAF) were used, respectively. For hepatocarcinogenesis initiation in this model, a single DEN dose (200 mg/kg b.wt.) dissolved in saline was injected intraperitoneally. After initiation, all rats underwent one period of 5-days fasting, as mitotic proliferative stimuli. To promote hepatocarcinogenesis, 2-acetylaminofluorene (2-AAF) was introduced in the form of six daily intragastric doses (30 mg/kg in 1% Tween 80); two weeks after DEN treatment.
Safranal at doses of 25 mg/kg by weight (b.wt.) and 50 mg/kg b.wt, was administrated orally to rats. These doses have been reported to suppress chemically-induced oxidative damage in rats. A total of 40 adult male albino Wistar rats were randomly divided into […] (n=8) and were subjected to different treatments. Group 1 (control) was orally administered distilled water (5 ml/kg b.wt.) throughout the experimental duration and were injected with a single dose of saline. Group 2 (Safranal only) was subjected to a safranal dose (50 mg/kg b.wt.) through oral administration for the duration of the experimental period. Hepatocarcinogenesis was induced by DEN and promoted by 2-AAF, as reported previously, in group 3 (HCC). Rats in protective groups (groups 4-5) were treated with low/high doses of saffron-based safranal suspensions, at the beginning of promotion periods and continued for 12 weeks. The low dosage treatment with safranal consisted of 25 mg/kg b.wt., and the high dosage treatment consisted of 50 mg/kg b.wt. The experimental design is illustrated in FIG. 1.
For immunohistochemical staining, mounted sections were immersed in sodium citrate buffer (0.1 M, pH 6) and placed in a water bath for 15 minutes to unmask antigen epitopes. […] Ten fields were randomly selected to quantify positive cells, in individual samples (400×). […]

Assay [3] relates to NF-kB-p65 nuclear localization. Nature of the assay: NF-kB-p65 nuclear localization in nuclear extracts. The note with it: animal groups pre-treated with safranal (DEN-exposed).
Description: DEN, 2-AAF, 5, 5′-dithiobis-(2-nitrobenzoic acid thiobarbituric acid, Folin's reagent, pyrogallol, SOD enzyme, H2O2, and bovine albumin were obtained from Sigma Chemical Co. (St. Louis, Mo.). Nf-kB nuclear localization assay kit was purchased from (Ser. No. 10/007,889, Cayman Chemical Company, Ann Arbor, Mich., USA).
as §1
Safranal at doses of 25 mg/kg by weight (b.wt.) and 50 mg/kg b.wt, was administrated orally to rats. These doses have been reported to suppress chemically-induced oxidative damage in rats. A total of 40 adult male albino Wistar rats were randomly divided into […] (n=8) and were subjected to different treatments. […]

Where [4] appears, read: HCC (DEN/2-AAF) rats + safranal high dose 50 mg/kg b.wt. oral, 12 weeks.
Setting [5] is: HCC (DEN/2-AAF) rats + safranal low dose 25 mg/kg b.wt. oral, 12 weeks.
[6] abbreviates: safranal alone 50 mg/kg b.wt. oral, no DEN (group 2).

Marks after values point to notes of the source that are not given here.

Take `CC1=C(C=O)C(C)(C)CC=C1` [Safranal, 2,6,6-trimethylcyclohexa-1,3-diene-1-carbaldehyde]: the P.Carbonyl in assay [1] (setting [4]) is recorded as 1.45 ± 0.06 nmol/mg protein; in assay [1] (setting [5]), 1.61 ± 0.06 nmol/mg protein; in assay [1] (setting [6]), 1.52 ± 0.03 nmol/mg protein. In addition, the ED-2 positive cells in assay [2] (setting [4]) is reported as 46.44 ± 3.12^b positive cells/field; in assay [2] (setting [5]) it was 46.75 ± 3.04^b positive cells/field; in assay [2] (setting [6]), 39.30 ± 1.77 positive cells/field. For the same molecule, the “NF-kB-p65 level in nuclear extracts” value in assay [3] was “parallel decrease in NF-kB-p65 level in nuclear extracts”.
